The record followed here is article PMC4856737 (Bioorganic & medicinal chemistry letters, 2016).

The term IC50 denotes the concentration that inhibits the measured activity by half. High values mean a need for much substance, low ones inhibition by little substance. One may read the viability as a read-out of living cells in per cent, often relative to untreated cells.

For series [1], the system named is M. Tb. H37Rv (ATCC 27294). As to the kind of experiment: M. Tb. H37Rv dose-response assay. It counts as cell-based. As to conditions: Mycobacterium tuberculosis, ATCC27294|H37RV.
The nature of series [2]: in vitro. As to conditions: mouse, % of cellular viability, High conc.
The test system of series [3] is M. Tb. H37Rv. The experiment in a line: Minimum bactericidal concentration. It counts as cell-based, Mycobacterium tuberculosis.

As to `Cc1c(C(=O)/C=C/c2ccccc2)[n+]([O-])c2cc(Cl)ccc2[n+]1[O-]` [Compound 3], the IC50 in series [1] lay within 0.5 to 1.5 µM. With `O=C(c1ccco1)c1c(C(F)(F)F)[n+]([O-])c2cc(Cl)c(N3CCOCC3)cc2[n+]1[O-]` [Compound 16], in series [2], the viability amounted to 26%. The molecule also gave an IC50 in series [1] of 0.5 to 1.5 µM. Further, the MBC result in series [3] (NA: colony counts above the established rejection value ≥ 40, TNTC: too numerous to count) is “TNTC”. In the case of `COC(=O)c1c(C(F)(F)F)[n+]([O-])c2ccc(N3CCN(c4ccc(F)cc4)CC3)cc2[n+]1[O-]` [Compound 21], in series [3] (ratio MBC/MIC ≤ 4), the bactericidal classification result is recorded as “bactericidal”.

On to `CC(=O)c1c(C(F)(F)F)nc2cc(F)c(N3CCSCC3)cc2[n+]1[O-]` [Compound 24], for which the IC50 in series [1] fell in the range of 0.5 to 1.5 µM.
